Data published in US12692264B2, “Pyrimidine or pyridine derivative, preparation method therefor, and application thereof in pharmacy” (ABBISKO THERAPEUTICS CO., LTD., priority 2021, dated 2026).
pIC50: −log10 of the molar value.

Columns and labels:
Type in all cases: cell-based
[1] = test system: A431 (EGFR-WT); experiment: Cell proliferation study (CellTiter-Glo, 72 hrs), A431; details: Homo sapiens, A-431, A431 cells, CTG, * = average of multiple measurements
Outline: (§1)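 Cells were seeded overnight, then exposed for 72 hrs at 37 °C, 5% CO2 to 9 concentrations in 3.16-fold steps, 0.1% DMSO final, triplicate wells. Viability was read by CellTiter-Glo luminescence, with a T0 plate read at dosing. IC50 came from nonlinear sigmoidal dose-response fits.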

[2] = target: Ba/F3 EGFR-D770-N771ins_SVD (Homo sapiens, UniProt P00533, DUP768-770, cells depend on it); experiment: Cell proliferation study (CellTiter-Glo, 72 hrs), Ba/F3 EGFR-D770-N771ins_SVD; details: CTG, * = average of multiple measurements, read-out: Ba/F3 EGFR-D770-N771ins_SVD IC50
Outline: as §1

[3] = target: Ba/F3 EGFR-V769_D770insASV (Homo sapiens, UniProt P00533, DUP767-769, cells depend on it); experiment: Cell proliferation study (CellTiter-Glo, 72 hrs), Ba/F3 EGFR-V769_D770insASV; details: CTG, * = average of multiple measurements, read-out: Ba/F3 EGFR-V769_D770insASV IC50
Outline: as §1

Chain of Ba/F3 EGFR-V769_D770insASV (P00533 with tags, fused parts or gaps DUP767-769): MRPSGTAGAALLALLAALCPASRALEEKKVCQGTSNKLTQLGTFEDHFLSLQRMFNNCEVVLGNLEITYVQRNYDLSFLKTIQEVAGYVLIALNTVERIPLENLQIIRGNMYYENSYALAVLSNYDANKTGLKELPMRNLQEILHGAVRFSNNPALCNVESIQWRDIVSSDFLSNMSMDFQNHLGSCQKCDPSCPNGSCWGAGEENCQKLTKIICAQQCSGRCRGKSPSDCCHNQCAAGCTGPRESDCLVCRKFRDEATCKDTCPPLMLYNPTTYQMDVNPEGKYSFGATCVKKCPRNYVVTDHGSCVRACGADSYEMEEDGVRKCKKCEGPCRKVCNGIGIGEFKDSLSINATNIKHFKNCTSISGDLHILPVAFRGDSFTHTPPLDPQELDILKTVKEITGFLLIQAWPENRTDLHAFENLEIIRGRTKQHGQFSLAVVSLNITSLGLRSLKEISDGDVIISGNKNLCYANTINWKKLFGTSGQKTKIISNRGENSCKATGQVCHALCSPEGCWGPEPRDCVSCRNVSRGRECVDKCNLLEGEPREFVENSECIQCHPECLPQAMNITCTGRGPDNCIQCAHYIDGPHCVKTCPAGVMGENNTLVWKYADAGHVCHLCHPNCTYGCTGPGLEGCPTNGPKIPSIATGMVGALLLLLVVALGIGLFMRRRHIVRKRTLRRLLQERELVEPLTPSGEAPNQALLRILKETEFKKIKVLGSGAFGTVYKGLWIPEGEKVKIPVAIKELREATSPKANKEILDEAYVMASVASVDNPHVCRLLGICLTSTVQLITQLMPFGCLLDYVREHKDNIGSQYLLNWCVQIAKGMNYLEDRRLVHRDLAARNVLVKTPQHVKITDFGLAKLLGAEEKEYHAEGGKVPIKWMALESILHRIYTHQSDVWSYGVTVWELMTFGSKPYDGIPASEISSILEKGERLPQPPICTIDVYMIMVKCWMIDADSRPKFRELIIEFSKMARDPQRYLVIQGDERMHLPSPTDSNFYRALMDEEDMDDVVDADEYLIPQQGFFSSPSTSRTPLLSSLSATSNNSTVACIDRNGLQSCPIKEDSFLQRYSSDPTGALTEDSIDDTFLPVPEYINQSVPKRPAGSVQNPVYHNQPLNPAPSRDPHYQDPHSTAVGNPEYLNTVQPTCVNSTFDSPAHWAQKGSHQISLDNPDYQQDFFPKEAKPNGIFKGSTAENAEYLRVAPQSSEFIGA
Chain of Ba/F3 EGFR-D770-N771ins_SVD (P00533 with tags, fused parts or gaps DUP768-770): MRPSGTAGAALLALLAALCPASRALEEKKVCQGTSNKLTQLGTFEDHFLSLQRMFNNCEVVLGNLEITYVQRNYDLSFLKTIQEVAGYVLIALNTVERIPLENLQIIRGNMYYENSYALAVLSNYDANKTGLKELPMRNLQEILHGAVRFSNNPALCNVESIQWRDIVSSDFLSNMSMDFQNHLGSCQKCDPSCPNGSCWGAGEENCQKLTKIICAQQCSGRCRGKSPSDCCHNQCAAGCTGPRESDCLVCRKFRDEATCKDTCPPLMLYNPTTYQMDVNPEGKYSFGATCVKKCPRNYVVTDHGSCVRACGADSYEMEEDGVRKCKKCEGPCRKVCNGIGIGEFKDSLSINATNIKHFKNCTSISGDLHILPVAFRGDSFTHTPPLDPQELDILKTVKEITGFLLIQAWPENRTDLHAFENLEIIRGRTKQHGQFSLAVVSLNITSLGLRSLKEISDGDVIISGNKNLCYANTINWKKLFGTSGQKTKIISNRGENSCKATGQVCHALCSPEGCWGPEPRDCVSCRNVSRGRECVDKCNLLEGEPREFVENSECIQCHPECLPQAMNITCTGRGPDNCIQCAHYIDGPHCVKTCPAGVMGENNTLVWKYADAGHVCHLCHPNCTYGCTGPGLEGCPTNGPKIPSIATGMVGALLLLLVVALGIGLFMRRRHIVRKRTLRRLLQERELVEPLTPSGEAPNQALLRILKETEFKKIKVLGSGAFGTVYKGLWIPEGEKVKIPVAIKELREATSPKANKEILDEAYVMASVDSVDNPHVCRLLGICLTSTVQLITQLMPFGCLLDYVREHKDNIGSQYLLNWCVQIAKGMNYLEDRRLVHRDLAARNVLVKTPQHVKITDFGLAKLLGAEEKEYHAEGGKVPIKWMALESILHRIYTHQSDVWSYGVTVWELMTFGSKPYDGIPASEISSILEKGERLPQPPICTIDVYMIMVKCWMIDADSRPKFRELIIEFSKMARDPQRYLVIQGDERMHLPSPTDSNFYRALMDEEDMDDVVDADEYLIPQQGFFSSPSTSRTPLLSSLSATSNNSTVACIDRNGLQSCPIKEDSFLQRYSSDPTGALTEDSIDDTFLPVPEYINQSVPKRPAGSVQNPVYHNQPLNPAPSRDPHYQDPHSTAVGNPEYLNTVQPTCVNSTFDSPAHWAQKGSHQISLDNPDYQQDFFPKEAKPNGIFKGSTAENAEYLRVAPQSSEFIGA

| Compound | pIC50 [1] | GI50 [2] | GI50 [3] |
| --- | --- | --- | --- |
| C=CC(=O)Nc1cc(Nc2ncc(C(=O)OC(C)C)c(N3CC(C)(C)c4nc(C)ccc43)n2)c(OC)cc1N(C)CCNC [Example 15, isopropyl 2-((5-acrylamido-2-methoxy-4-(methyl (2-(methylamino)ethyl)amino)phenyl)amino)-4-(3,3,5-trimethyl-2,3-dihydro-1H-pyrrolo[3,2-b]pyridin-1-yl)pyrimidine-5-carboxylate] | 6.06 | 35 nM | 49.2 nM |
| C=CC(=O)Nc1cc(Nc2ncc(C(=O)OC(C)C)c(N3CC(C)(C)c4cc(F)c(F)cc43)n2)c(OC)cc1N1C[C@@H](F)C[C@@H]1CN(C)C [Example 93, isopropyl 2-((5-acrylamido-4-((2R,4S)-2-((di-methylamino)methyl)-4-fluoro-pyrrolidin-1-yl)-2-methoxy-phenyl)amino)-4-(5,6-difluoro-3,3-dimethylindolin-1-yl)pyrimidine-5-carboxylate] | 6.11 | 34.6 nM | 28.8 nM |
| C=CC(=O)Nc1cc(Nc2ncc(C(=O)OC(C)C)c(N3CC(C)(C)c4nc(C)ccc43)n2)c(OC)cc1N1CCC[C@H](N(C)C)C1 [Example 60, isopropyl (S)-2-((5-acrylamido-4-(3-(dimethyl-amino)piperidin-1-yl)-2-methoxy-phenyl)amino)-4-(3,3,5-trimethyl-2,3-dihydro-1H-pyrrolo[3,2-b]pyridin-1-yl)pyrimidine-5-carboxylate] | 6.12 | 31.9 nM | 37.9 nM |
| C=CC(=O)Nc1cc(Nc2ncc(C(=O)OC(C)C)c(N3CC(C)(C)c4cc(F)c(F)cc43)n2)c(OC)cc1N1CCC[C@@H]1CN(C)C [Example 92, isopropyl (R)-2-((5-acrylamido-4-(2-((dimethyl-amino)methyl)pyrrolidin-1-yl)-2-meth-oxyphenyl)amino)-4-(5,6-difluoro-3,3-dimethylindolin-1-yl)pyrimidine-5-carboxylate] | 6.02 | 33.2 nM | 27.9 nM |
| [2H]C([2H])([2H])N(CCN(C)C)c1cc(OC)c(Nc2ncc(C(=O)OC(C)C)c(N3CC(C)(C)c4nc(C)ccc43)n2)cc1NC(=O)C=C [Example 36, isopropyl 2-((5-acrylamido-4-((2-(dimethylami-no)ethyl)(methyl-d3)amino)-2-methoxy-phenyl)amino)-4-(3,3,5-trimethyl-2,3-dihydro-1H-pyrrolo[3,2-b]pyridin-1-yl)pyrimidine-5-carboxylate] | 6.45 | 14.8 nM | 22.8 nM |
| C=CC(=O)Nc1cc(Nc2ncc(C(=O)OC(C)C)c(N3CC(C)(C)c4cc(F)c(F)cc43)n2)c(OC)cc1N(C)CCN(C)C [Example 91, isopropyl 2-((5-acrylamido-4-((2-(dimethylami-no)ethyl)(methyl)amino)-2-methoxy-phenyl)amino)-4-(5,6-difluoro-3,3-dimethylindolin-1-yl)pyrimidine-5-carboxylate] | 5.97 | 37.5 nM | 32.2 nM |
| C=CC(=O)Nc1cc(Nc2ncc(C(=O)OC(C)C)c(N3CC4(CCC4)c4ncccc43)n2)c(OC)cc1N(C)CCN(C)C [Example 7, isopropyl 2-((5-acrylamido-4-((2-(dimethylami-no)ethyl)(methyl)amino)-2-methoxy-phenyl)amino)-4-(spiro(cyclobutane-1,3′-pyrrolo[3,2-b]pyridin)-1′(2′H)-yl)pyrimidine-5-carboxylate] | 6.13 | 18.8 nM | 29.9 nM |
| C=CC(=O)Nc1cc(Nc2ncc(C(=O)OC(C)C)c(N3CC(C)(C)c4nc(C)ccc43)n2)c(OC)cc1N1CC[C@@H](N(C)C)C1 [Example 12, isopropyl (R)-2-((5-acrylamido-4-(3-(dimethyl-amino)pyrrolidin-1-yl)-2-methoxy-phenyl)amino)-4-(3,3,5-trimethyl-2,3-dihydro-1H-pyrrolo[3,2-b]pyridin-1-yl)pyrimidine-5-carboxylate] | 6.22 | 18.5 nM | 36.9 nM |
| C=CC(=O)Nc1cc(Nc2ncc(C(=O)OC(C)C)c(N3CC(C)(C)c4nc(C#CC)ccc43)n2)c(OC)cc1N(C)CCN(C)C [Example 30, isopropyl 2-((5-acrylamido-4-((2-(dimethylami-no)ethyl)(methyl)amino)-2-methoxy-phenyl)amino)-4-(3,3-dimethyl-5-(prop-1-yn-1-yl)-2,3-dihydro-1H-pyrrolo[3,2-b]pyridin-1-yl)pyrimidine-5-carboxylate] | 6.25 | 7.6 nM | 21.5 nM |

Stronger by pIC50 [1], values ahead:

| pIC50 [1] | GI50 [2] | GI50 [3] | Compound |
| --- | --- | --- | --- |
| 6.89 | 9 nM | 29.3 nM | C=CC(=O)Nc1cc(Nc2ncc(C(=O)OC(C)C)c(N3CC(C)(C)c4nc(C)ccc43)n2)c(OC(F)F)cc1N(C)CCN(C)C [Example 81, isopropyl 2-((5-acrylamido-2-(difluoromethoxy)-4-((2-(dimethylamino)eth-yl)(methyl)amino)phenyl)amino)-4-(3,3,5-trimethyl-2,3-dihydro-1H-pyrrolo[3,2-b]pyridin-1-yl)pyrimidine-5-carboxylate] |
| 6.98 | 7 nM | 10.4 nM | C=CC(=O)Nc1cc(Nc2ncc(C(=O)OC(C)C)c(N3CC(C)(C)c4nc(C)ccc43)n2)c(OC)cc1N(C)CCN(C)C [Example 1, isopropyl 2-((5-acrylamido-4-((2-(dimethylamino)ethyl)(methyl)amino)-2-methoxyphenyl)amino)-4-(3,3,5-trimethyl-2,3-dihydro-1H-pyrrolo[3,2-b]pyridin-1-yl)pyrimidine-5-carboxylate] |
| 6.66 | 12 nM | 12.6 nM | C=CC(=O)Nc1cc(Nc2ncc(C(=O)OC(C)C)c(N3CC(C)(C)c4nc(C#CC)ccc43)n2)c(OC)cc1N1C[C@@H](F)C[C@@H]1CN(C)C [Example 84, isopropyl 2-((5-acrylamido-4-((2R,4S)-2-((di-methylamino)methyl)-4-fluoro-pyrrolidin-1-yl)-2-methoxy-phenyl)amino)-4-(3,3-dimethyl-5-(prop-1-yn-1-yl)-2,3-dihydro-1H-pyrrolo[3,2-b]pyridin-1-yl)pyrimidine-5-carboxylate] |
| 7.63 | 17.8 nM | 31.8 nM | C#Cc1ccc2c(n1)C(C)(C)CN2c1nc(Nc2cc(NC(=O)C=C)c(N(C)CCN(C)C)cc2OC)ncc1C(=O)OC(C)C [Example 9, isopropyl 2-((5-acrylamido-4-((2-(dimethylamino)ethyl)(methyl)amino)-2-methoxyphenyl)amino)-4-(5-ethynyl-3,3-dimethyl-2,3-dihydro-1H-pyrrolo[3,2-b]pyridin-1-yl)pyrimidine-5-carboxylate] |
| 6.52 | 33.5 nM | 91.1 nM | C=CC(=O)Nc1cc(Nc2ncc(C(=O)OC(C)C)c(N3CC(C)(C)c4nc(C)ccc43)n2)c(OC)cc1N(C)CCN(CC)CC [Example 56, isopropyl 2-((5-acrylamido-4-((2-(diethylami-no)ethyl)(methyl)amino)-2-methoxy-phenyl)amino)-4-(3,3,5-trimethyl-2,3-dihydro-1H-pyrrolo[3,2-b]pyridin-1-yl)pyrimidine-5-carboxylate] |
| 6.53 | 33.9 nM | 44.2 nM | C=CC(=O)Nc1cc(Nc2ncc(C(=O)OC(C)C)c(N3CC(C)(C)c4nc(C)ccc43)n2)c(OC)cc1N1CC(N(C)C)C1 [Example 40, isopropyl 2-((5-acrylamido-4-(3-(dimethylami-no)azetidin-1-yl)-2-methoxyphenyl)ami-no)-4-(3,3,5-trimethyl-2,3-dihydro-1H-pyrrolo[3,2-b]pyridin-1-yl)pyrimidine-5-carboxylate] |
| 7.14 | 12.3 nM | 36.4 nM | [2H]C([2H])([2H])N(CCN(C([2H])([2H])[2H])C([2H])([2H])[2H])c1cc(OC)c(Nc2ncc(C(=O)OC(C)C)c(N3c4ccc(C)nc4C(C)(C)C3([2H])[2H])n2)cc1NC(=O)C=C [Example 78, isopropyl 2-((5-acrylamido-4-((2-(bis(methyl-d3)amino)ethyl)(methyl-d3)amino)-2-methoxyphenyl)amino)-4-(3,3,5-tri-methyl-2,3-dihydro-1H-pyrrolo[3,2-b]pyridin-1-yl-2,2-d2)pyrimidine-5-carboxylate] |
| 6.74 | 11.8 nM | 13.9 nM | C=CC(=O)Nc1cc(Nc2ncc(C(=O)OC(C)C)c(N3CC(C)(C)c4nc(C)ccc43)n2)c(OC)nc1N1CCC[C@@H]1CN(C)C [Example 31, isopropyl (R)-2-((5-acrylamido-6-(2-((dimethyl-amino)methyl)pyrrolidin-1-yl)-2-meth-oxypyridin-3-yl)amino)-4-(3,3,5-tri-methyl-2,3-dihydro-1H-pyrrolo[3,2-b]pyridin-1-yl)pyrimidine-5-carboxylate] |
| 6.55 | 39 nM | 34.4 nM | C=CC(=O)Nc1cc(Nc2ncc(C(=O)OC(C)C)c(N3CC4(CC4)c4nc(C)ccc43)n2)c(OC)cc1NCCN(C)C [Example 65, isopropyl 2-((5-acrylamido-4-((2-(dimethylami-no)ethyl)amino)-2-methoxy-phenyl)amino)-4-(5′-methylspiro(cyclo-propane-1,3′-pyrrolo[3,2-b]pyridin)-1′(2′H)-yl)pyrimidine-5-carboxylate] |
| 6.94 | 11.3 nM | 23.6 nM | [2H]C([2H])([2H])N(CCN(C)c1cc(OC)c(Nc2ncc(C(=O)OC(C)C)c(N3CC(C)(C)c4nc(C)ccc43)n2)cc1NC(=O)C=C)C([2H])([2H])[2H] [Example 42, isopropyl 2-((5-acrylamido-4-((2-(bis(methyl-d3)amino)ethyl)(methyl)amino)-2-methoxyphenyl)amino)-4-(3,3,5-trimethyl-2,3-dihydro-1H-pyrrolo[3,2-b]pyridin-1-yl)pyrimidine-5-carboxylate] |
